Measurements: PMC9228089, “1,5-Benzothiazepine Derivatives: Green Synthesis, In Silico and In Vitro Evaluation as Anticancer Agents” (Molecules, 2022)

Legend:
[1] = tested on: Hep G-2; experiment: MTT cytotoxicity assay, liver cancer cell line; assay type: cell-based, human
Method: (§1) HepG-2, and DU-145 human tumor cell lines were grown in DMEM medium supplemented with Glutamax-I and glucose. A pseudo-normal human embryonic liver cell line (L02) was used to study the cytotoxicity of the synthesized compounds. The cell culture medium was supplemented with fetal calf serum (10% v/v), penicillin (100 IU/mL), and streptomycin (100 µg/mL), then preserved at 37 °C.
(§2) A spectrophotometric MTT reagent assay was employed to assess the cytotoxic activity of the synthesized compounds. In brief, the grown cells (approx. 5 × 10^3 count) were placed in each well of a 96-well plate and 100 µL of the culture medium was added along with the synthesized compounds (1–100 µmol/L). The well plate was subjected to incubation for 72 h; later, 10 µL of MTT (5 mg/mL) was added to each well. The well plate was further incubated for 4 h at 37 °C. The resulting insoluble formazan was dissolved by adding sodium dodecyl sulfate (100 µL, 10%) to each well and continuing incubation for an additional 12 h. Later, the 96-well plate was used to measure the absorbance at the 540 nm and 630 nm reference wavelengths using the spectrophotometer. The blank absorbance was treated as a control and the IC50 values were determined by a non-linear regression model with the help of normalized dose-response data acquired via MTT assay.

[2] = tested on: DU-145; experiment: MTT cytotoxicity assay, prostate cancer cell line; assay type: cell-based, human
Method: as §1, §2

[3] = biological target: GSK-3β (Homo sapiens, UniProt P49841); experiment: GSK-3β inhibitory assay (Kinase-Glo luminescence); conditions: for inhibition at 50 µM: read-out: % of Inhibition at 50 µM, 50 µM, triplicate
Method: Briefly, the assay procedure was as follows. […] The activity was determined by the difference between total and consumed ATP. The inhibition activity was determined using the maximal activity in the absence of the inhibitor and the maximal inhibition in the presence of the reference drug. IC50 values were determined using the GraphPad Prism 4.0 tool (GraphPad Software Inc., San Diego, CA, USA).

[4] = tested on: L02; experiment: MTT cytotoxicity assay, embryonic liver cell line (selective toxicity); assay type: cell-based; conditions: for inhibition at 100 µM: L02, human embryonic liver cell line
Method: as §1, §2

Chain of GSK-3β (P49841 whole entry): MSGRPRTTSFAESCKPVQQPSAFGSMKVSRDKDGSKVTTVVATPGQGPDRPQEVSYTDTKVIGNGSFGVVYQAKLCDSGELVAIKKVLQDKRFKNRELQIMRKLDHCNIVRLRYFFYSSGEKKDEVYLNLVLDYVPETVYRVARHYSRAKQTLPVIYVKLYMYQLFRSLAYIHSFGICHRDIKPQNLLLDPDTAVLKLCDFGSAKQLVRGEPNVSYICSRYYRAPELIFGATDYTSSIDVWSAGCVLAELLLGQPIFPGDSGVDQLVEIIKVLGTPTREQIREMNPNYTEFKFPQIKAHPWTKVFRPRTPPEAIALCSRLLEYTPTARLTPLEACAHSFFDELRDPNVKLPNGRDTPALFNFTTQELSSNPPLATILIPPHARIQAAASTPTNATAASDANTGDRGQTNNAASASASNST

inhibition at 50 µM [3]	melting point	SMILES	IC50 ([1]; Homo sapiens, HepG2, 72 h)	IC50 ([2]; Homo sapiens, DU-145, 72 h)	inhibition at 100 µM [4]	IC50 ([1]; 72 h)	IC50 ([2]; 72 h)	% of Inhibition at 50 µM [3]	% Inhibition (100 µM) L02 ([4]; human embryonic liver cell line)
61.9 ± 3.47%	244 to 246 °C	Cc1ccc2c(c1)N=C(c1cc(Br)cc(I)c1O)CC(c1ccc(N(C)C)cc1)S2 (stereo not drawn) [2h, 4-bromo-2-(2-(4-(dimethylamino)phenyl)-7-methyl-2,3-dihydrobenzo[b][1,4]thiazepin-4-yl)-6-iodophenol]	8.56 ± 0.14 µM	36.8 ± 0.18 µM	46.1 ± 1.05%	–	–	–	–
66.6 ± 2.51%	244 to 246 °C	Cc1ccc2c(c1)N=C(c1cc(C)cc(Br)c1O)CC(c1ccc(N(C)C)cc1)S2 (stereo not drawn) [2e, 2-bromo-6-(2-(4-(dimethylamino)phenyl)-7-methyl-2,3-dihydrobenzo[b][1,4]thiazepine-4-yl)-4-methylphenol]	6.87 ± 0.15 µM	37.52 ± 0.27 µM	52.2 ± 1.42%	–	–	–	–
89.7 ± 1.65%	244 to 246 °C	Cc1ccc2c(c1)N=C(c1cc(Cl)cc(Br)c1O)CC(c1ccc(N(C)C)cc1)S2 (stereo not drawn) [2f, 2-bromo-4-chloro-6-(2-(4-(dimethylamino)phenyl)-7-methyl-2,3-dihydrobenzo [b][1,4]thiazepin-4-yl)phenol]	4.38 ± 0.11 µM	24.58 ± 0.13 µM	28.4 ± 1.18%	–	–	–	–
61.1 ± 1.98%	244 to 246 °C	Cc1ccc2c(c1)N=C(c1cc(Cl)cc(I)c1O)CC(c1ccc(N(C)C)cc1)S2 (stereo not drawn) [2d, 4-chloro-2-(2-(4-(dimethylamino)phenyl)-7-methyl-2,3-dihydrobenzo[b][1,4]thiazepine-4-yl)-6-iodophenol]	7.89 ± 0.22 µM	36.17 ± 0.14 µM	31.4 ± 1.14%	–	–	–	–

The remaining lines, values behind:

SMILES	inhibition at 50 µM [3]	melting point	IC50 ([1]; Homo sapiens, HepG2, 72 h)	IC50 ([2]; Homo sapiens, DU-145, 72 h)	inhibition at 100 µM [4]	IC50 ([1]; 72 h)	IC50 ([2]; 72 h)	% of Inhibition at 50 µM [3]	% Inhibition (100 µM) L02 ([4]; human embryonic liver cell line)
Cc1ccc2c(c1)N=C(c1cc(C)cc(I)c1O)CC(c1ccc(N(C)C)cc1)S2 (stereo not drawn) [2b, 2-(2-(4-(dimethylamino)phenyl)-7-methyl-2,3-dihydrobenzo[b][1,4]thiazepin-4-yl)-6-iodo-4-methylphenol]	60.7 ± 2.85%	218 to 220 °C	8.26 ± 0.26 µM	41.34 ± 0.12 µM	19.6 ± 0.97%	–	–	–	–
Cc1ccc2c(c1)N=C(c1cc(I)cc(I)c1O)CC(c1ccc(N(C)C)cc1)S2 (stereo not drawn) [2a, 2-(2-(4-(dimethylamino)phenyl)-7-methyl-2,3-dihydrobenzo[b][1,4]thiazepin-4-yl)-4,6-diiodophenol]	62.4 ± 2.21%	230 to 232 °C	7.52 ± 0.13 µM	32.74 ± 0.13 µM	28.2 ± 1.68%	–	–	–	–
CN(Cc1cnc2nc(N)nc(N)c2n1)c1ccc(C(=O)N[C@@H](CCC(=O)O)C(=O)O)cc1 [Methotrexate, reference compound]	–	–	4.68 ± 0.17 µM	21.96 ± 0.15 µM	78.2 ± 1.86%	–	–	–	–
Cc1ccc2c(c1)N=C(c1cc(Cl)cc(Cl)c1O)CC(c1ccc(N(C)C)cc1)S2 (stereo not drawn) [2c, 2,4-dichloro-6-(2-(4-(dimethylamino)phenyl)-7-methyl-2,3-dihydrobenzo[b][1,4]thiazepin-4-yl)phenol]	> 90%	222 to 224 °C	3.29 ± 0.15 µM	20.45 ± 0.19 µM	19.3 ± 1.25%	–	–	–	–
Cc1ccc2c(c1)N=C(c1cc(Br)cc(Br)c1O)CC(c1ccc(N(C)C)cc1)S2 (stereo not drawn) [2g, 2,4-dibromo-6-(2-(4-(dimethylamino)phenyl)-7-methyl-2,3-dihydrobenzo[b][1,4]hiazepine-4-yl)phenol]	–	–	–	–	–	8.32 ± 0.16 µM	28.53 ± 0.14 µM	87.62 ± 2.54%	15.56 ± 1.29%
